Data reported in ChEMBL document CHEMBL4043275, “Design, synthesis and biological evaluation of phthalimide-alkylamine derivatives as balanced multifunctional cholinesterase and monoamine oxidase-B inhibitors for the treatment of Alzheimer's disease” (Bioorg Med Chem Lett, 2017).

How the values were obtained:
Acetylcholinesterase [1] = molecular target: T1, Acetylcholinesterase (Rattus norvegicus, UniProt P37136); assay: Inhibition of rat cortex homogenate AChE using acetylthiocholine chloride as substrate incubated for 15 mins by Ellman's method
T1 sequence (P37136 whole entry): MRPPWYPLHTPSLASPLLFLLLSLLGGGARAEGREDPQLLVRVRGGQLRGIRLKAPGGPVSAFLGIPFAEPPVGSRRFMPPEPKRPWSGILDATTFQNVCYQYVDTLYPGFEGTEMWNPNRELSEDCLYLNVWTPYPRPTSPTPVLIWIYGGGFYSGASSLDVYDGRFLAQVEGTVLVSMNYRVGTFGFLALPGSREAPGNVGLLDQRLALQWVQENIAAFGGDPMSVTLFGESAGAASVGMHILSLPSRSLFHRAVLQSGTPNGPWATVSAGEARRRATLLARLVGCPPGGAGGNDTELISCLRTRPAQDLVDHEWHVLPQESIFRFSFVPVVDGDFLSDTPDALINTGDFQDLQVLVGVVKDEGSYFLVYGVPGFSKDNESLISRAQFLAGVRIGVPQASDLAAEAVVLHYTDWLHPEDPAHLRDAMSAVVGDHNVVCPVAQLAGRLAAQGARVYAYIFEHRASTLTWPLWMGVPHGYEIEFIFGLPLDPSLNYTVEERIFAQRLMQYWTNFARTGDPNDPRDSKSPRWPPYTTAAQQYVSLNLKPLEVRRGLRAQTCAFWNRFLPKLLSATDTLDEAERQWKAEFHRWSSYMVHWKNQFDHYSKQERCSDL

[2] = molecular target: T2, Amine oxidase [flavin-containing] B (Homo sapiens, UniProt P27338); assay: Inhibition of human recombinant MAO-B expressed in baculovirus infected BTI insect cells using kynuramine as substrate after 30 mins by fluorescence assay; type: cell-based
T2 sequence (P27338 whole entry): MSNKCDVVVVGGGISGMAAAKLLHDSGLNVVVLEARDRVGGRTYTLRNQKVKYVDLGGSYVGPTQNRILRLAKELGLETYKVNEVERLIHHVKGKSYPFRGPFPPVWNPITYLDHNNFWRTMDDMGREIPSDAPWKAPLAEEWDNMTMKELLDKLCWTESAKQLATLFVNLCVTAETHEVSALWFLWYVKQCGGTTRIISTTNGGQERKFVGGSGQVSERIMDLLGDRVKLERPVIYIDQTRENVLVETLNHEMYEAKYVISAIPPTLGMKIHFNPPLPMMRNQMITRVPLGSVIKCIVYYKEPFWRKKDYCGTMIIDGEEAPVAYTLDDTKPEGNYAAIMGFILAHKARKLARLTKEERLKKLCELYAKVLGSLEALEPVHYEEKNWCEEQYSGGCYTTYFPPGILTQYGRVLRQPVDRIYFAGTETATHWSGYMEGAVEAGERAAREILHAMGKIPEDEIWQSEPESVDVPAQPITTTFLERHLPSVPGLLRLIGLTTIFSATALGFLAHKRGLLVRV

Butyrylcholinesterase = Butyrylcholinesterase (Rattus norvegicus, UniProt Q9JKC1); assay: Inhibition of rat serum BChE using butyrylthiocholine chloride as substrate incubated for 15 mins by Ellman's method
[3] = molecular target: T3, Amine oxidase [flavin-containing] A (Homo sapiens, UniProt P21397); assay: Inhibition of human recombinant MAO-A expressed in baculovirus infected BTI insect cells at 20 uM using kynuramine as substrate after 30 mins by fluorescence assay relative to control; details: 0.5 h
T3 sequence (P21397 whole entry): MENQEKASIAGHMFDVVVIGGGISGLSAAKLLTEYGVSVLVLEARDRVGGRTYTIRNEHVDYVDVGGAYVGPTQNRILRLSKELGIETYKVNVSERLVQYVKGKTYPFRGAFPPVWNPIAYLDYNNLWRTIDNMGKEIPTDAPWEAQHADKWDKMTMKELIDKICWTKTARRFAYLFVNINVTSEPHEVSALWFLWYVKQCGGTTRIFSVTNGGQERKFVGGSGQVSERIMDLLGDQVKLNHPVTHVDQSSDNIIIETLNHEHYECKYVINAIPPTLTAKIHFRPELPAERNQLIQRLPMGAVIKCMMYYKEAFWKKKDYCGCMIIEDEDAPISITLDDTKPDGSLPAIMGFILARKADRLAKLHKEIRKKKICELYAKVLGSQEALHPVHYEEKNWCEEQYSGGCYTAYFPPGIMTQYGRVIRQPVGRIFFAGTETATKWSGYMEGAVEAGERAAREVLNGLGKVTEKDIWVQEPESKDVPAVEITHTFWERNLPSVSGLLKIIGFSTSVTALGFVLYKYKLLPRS

[4] = Selectivity index, ratio of IC50 for equine serum BChE to IC50 for electric eel AChE
Cholinesterase [5] = molecular target: Cholinesterase (Equus caballus, UniProt P81908); assay: Inhibition of equine serum BChE using butyrylthiocholine chloride as substrate incubated for 15 mins by Ellman's method
Acetylcholinesterase [6] = molecular target: Acetylcholinesterase (Electrophorus electricus, UniProt O42275); assay: Inhibition of electric eel AChE using acetylthiocholine chloride as substrate incubated for 15 mins by Ellman's method
Cholinesterase [7] = molecular target: Cholinesterase (Homo sapiens, UniProt P06276); assay: Inhibition of human serum BChE using butyrylthiocholine chloride as substrate incubated for 15 mins by Ellman's method
Acetylcholinesterase [8] = molecular target: Acetylcholinesterase (Homo sapiens, UniProt P22303); assay: Inhibition of human erythrocyte AChE using acetylthiocholine chloride as substrate incubated for 15 mins by Ellman's method
Acetylcholinesterase (Homo sapiens, UniProt P22303), sequence (P22303 whole entry): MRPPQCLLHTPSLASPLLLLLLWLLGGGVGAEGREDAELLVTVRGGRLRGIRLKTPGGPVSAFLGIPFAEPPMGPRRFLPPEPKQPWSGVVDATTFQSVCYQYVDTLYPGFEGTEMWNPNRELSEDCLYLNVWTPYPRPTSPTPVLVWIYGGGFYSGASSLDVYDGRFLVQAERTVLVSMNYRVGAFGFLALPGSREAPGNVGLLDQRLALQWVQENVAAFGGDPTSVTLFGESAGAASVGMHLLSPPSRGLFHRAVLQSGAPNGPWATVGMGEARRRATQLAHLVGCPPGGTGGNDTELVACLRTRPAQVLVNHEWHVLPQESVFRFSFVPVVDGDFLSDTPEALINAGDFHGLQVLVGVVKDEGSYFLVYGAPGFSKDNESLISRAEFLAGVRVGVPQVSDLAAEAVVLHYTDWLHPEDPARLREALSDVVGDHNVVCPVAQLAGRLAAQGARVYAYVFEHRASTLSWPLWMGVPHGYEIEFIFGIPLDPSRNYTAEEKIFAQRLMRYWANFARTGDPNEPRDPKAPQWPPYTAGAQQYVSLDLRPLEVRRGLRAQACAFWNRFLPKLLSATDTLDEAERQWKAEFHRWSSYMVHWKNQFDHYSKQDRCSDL

Acetylcholinesterase (Electrophorus electricus, UniProt O42275), sequence (O42275 whole entry): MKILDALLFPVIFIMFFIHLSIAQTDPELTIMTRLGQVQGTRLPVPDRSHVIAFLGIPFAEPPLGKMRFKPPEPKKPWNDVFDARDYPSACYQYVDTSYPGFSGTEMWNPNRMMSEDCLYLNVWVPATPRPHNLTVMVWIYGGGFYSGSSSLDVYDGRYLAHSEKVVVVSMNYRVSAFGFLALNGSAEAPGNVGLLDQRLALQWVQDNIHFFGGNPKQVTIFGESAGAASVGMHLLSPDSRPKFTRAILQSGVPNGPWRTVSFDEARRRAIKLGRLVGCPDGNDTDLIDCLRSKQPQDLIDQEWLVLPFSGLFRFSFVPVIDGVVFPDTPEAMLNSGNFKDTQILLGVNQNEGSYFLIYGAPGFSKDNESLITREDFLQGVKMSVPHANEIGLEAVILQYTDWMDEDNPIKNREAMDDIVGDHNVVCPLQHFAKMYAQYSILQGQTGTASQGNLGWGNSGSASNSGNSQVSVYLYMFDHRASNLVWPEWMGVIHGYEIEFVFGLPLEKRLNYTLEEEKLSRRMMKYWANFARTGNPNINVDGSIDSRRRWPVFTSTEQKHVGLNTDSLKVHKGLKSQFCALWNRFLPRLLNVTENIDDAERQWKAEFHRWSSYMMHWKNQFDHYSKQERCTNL
Butyrylcholinesterase, sequence (Q9JKC1 whole entry): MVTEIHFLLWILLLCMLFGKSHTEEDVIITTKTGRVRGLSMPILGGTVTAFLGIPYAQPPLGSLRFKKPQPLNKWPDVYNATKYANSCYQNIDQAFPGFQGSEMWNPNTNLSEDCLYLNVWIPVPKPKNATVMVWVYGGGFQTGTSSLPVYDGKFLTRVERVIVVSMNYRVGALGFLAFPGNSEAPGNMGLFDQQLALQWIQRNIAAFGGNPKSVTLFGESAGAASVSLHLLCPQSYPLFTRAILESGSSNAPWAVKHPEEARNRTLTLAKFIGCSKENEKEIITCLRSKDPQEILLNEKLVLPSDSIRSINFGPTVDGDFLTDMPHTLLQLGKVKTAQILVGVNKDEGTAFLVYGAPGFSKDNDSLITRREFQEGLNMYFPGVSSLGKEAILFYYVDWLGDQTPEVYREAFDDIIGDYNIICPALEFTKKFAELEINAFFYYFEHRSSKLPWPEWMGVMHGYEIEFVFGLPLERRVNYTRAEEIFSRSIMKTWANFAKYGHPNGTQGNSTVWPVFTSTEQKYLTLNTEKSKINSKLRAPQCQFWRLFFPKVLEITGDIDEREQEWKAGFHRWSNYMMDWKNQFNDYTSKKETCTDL
Cholinesterase (Equus caballus, UniProt P81908), sequence (P81908 whole entry): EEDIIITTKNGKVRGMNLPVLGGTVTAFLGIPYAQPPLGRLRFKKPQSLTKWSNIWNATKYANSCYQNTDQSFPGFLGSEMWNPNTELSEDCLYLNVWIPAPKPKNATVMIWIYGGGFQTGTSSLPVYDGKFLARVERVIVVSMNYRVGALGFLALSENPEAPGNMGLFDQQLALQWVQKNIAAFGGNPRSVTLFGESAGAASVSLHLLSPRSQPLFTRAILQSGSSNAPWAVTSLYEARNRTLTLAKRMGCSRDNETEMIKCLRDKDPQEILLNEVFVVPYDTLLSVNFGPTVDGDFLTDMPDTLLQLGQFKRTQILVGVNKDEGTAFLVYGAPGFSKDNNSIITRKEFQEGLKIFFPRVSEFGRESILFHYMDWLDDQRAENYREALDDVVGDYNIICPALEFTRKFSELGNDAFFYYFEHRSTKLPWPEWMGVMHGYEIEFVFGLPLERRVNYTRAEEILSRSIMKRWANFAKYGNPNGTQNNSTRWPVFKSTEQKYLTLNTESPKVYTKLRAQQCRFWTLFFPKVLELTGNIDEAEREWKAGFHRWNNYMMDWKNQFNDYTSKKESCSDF
Cholinesterase (Homo sapiens, UniProt P06276), sequence (P06276 whole entry): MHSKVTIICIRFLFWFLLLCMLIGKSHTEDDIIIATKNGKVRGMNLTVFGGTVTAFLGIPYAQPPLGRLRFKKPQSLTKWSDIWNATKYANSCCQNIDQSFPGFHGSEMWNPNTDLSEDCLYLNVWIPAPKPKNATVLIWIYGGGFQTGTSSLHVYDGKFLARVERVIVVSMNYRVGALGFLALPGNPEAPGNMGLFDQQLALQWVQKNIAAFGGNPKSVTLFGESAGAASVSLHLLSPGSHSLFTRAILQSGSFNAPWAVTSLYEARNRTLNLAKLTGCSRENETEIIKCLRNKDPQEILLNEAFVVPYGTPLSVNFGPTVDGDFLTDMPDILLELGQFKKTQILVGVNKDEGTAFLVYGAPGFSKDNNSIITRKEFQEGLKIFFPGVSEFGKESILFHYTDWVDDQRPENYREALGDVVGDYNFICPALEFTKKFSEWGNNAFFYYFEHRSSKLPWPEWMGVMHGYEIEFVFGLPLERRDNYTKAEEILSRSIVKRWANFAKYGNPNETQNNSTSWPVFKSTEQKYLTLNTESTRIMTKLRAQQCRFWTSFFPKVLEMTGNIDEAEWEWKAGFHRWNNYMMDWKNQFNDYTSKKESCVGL

| SMILES | IC50 (Acetylcholinesterase [1]) [µM] | IC50 [2] [µM] | IC50 (Butyrylcholinesterase) [µM] | inhibition at 20 µM [3] [%] | Ratio IC50 [4] | IC50 (Cholinesterase [5]) [µM] | IC50 (Acetylcholinesterase [6]) [µM] | IC50 (Cholinesterase [7]) [µM] | IC50 (Acetylcholinesterase [8]) [µM] |
| --- | --- | --- | --- | --- | --- | --- | --- | --- | --- |
| CCN(CCCN1C(=O)c2ccccc2C1=O)Cc1ccccc1 | 1.1 | 6.9 | 13.2 | < 5 | 2.8 | 9.3 | 3.3 | – | – |
| COc1ccccc1CN(C)CCCCCCN1C(=O)c2ccccc2C1=O | 0.6 | 11.3 | 42.9 | < 5 | 27.8 | 30.6 | 1.1 | – | – |
| C#CCN(CCCCN1C(=O)c2ccccc2C1=O)Cc1ccccc1 | 4 | 6.5 | 32.4 | < 5 | 2.6 | 12.7 | 4.9 | – | – |
| CC(C)N1CCN(CCCN2C(=O)c3ccccc3C2=O)CC1 | 8.3 | 10.4 | 32.9 | < 5 | 2.7 | 34.9 | 12.9 | – | – |
| COc1ccccc1CN(C)CCCCN1C(=O)c2ccccc2C1=O | 3.7 | 11.6 | 9.1 | < 5 | 6.1 | 7.9 | 1.3 | – | – |
| CCN(CCCCCCN1C(=O)c2ccccc2C1=O)Cc1ccccc1 | 3.4 | 12.2 | 18.1 | < 5 | 11 | 11 | 1 | 15.8 | 3.7 |
| CCN(CCN1C(=O)c2ccccc2C1=O)Cc1ccccc1OC | 0.9 | 6.9 | 15.9 | < 5 | 5.1 | 18.3 | 3.6 | – | – |
| C#CCN(CCCCCCN1C(=O)c2ccccc2C1=O)Cc1ccccc1OC | 4.3 | 9.1 | 22.5 | < 5 | 2.7 | 13.4 | 4.9 | – | – |
| CN(CCCN1C(=O)c2ccccc2C1=O)Cc1ccccc1 | 12.8 | 6.1 | 22.8 | < 5 | 2.8 | 22.9 | 8.2 | – | – |
| CC(C)N1CCN(CCCCN2C(=O)c3ccccc3C2=O)CC1 | 3.9 | 8.9 | 17.9 | < 5 | 4.4 | 23.4 | 5.3 | – | – |
| COc1ccccc1CN(C)CCCN1C(=O)c2ccccc2C1=O | 9.8 | 9.8 | 27.7 | < 5 | 0.8 | 3.7 | 4.6 | – | – |
| COc1ccccc1CN(C)CCN1C(=O)c2ccccc2C1=O | 13.9 | 8.4 | 14.8 | < 5 | 1.9 | 11.9 | 6.2 | – | – |
| C#CCN(CCCCCN1C(=O)c2ccccc2C1=O)Cc1ccccc1 | 10.4 | 5.9 | 58.5 | < 5 | 4.1 | 13.9 | 3.4 | – | – |
| C#CCN(CCCCCCN1C(=O)c2ccccc2C1=O)Cc1ccccc1 | 7.6 | 8.2 | 16.2 | < 5 | 1.1 | 7.6 | 6.8 | – | – |
